Laboratory results: PubChem BioAssay (NCI)
“And” between values parts separate entries of the source, which are not always exact repeats. Equal values may be shown once.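 Following 48 hours of exposure in 96-well plates, responses at five concentrations were used to interpolate endpoints linearly. At the TGI there is no net growth.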

What was measured:
Experiment in all cases: growth of human tumour cells (NCI), 48 h
DU-145 prostate = test system: DU-145 prostate
OVCAR-3 ovarian = test system: OVCAR-3 ovarian
SN12C renal = test system: SN12C renal
786-0 renal = test system: 786-0 renal
NCI-H522 lung = test system: NCI-H522 lung
COLO 205 colon = test system: COLO 205 colon
PC-3 prostate = test system: PC-3 prostate
K-562 leukemia = test system: K-562 leukemia
SK-MEL-2 melanoma = test system: SK-MEL-2 melanoma
SNB-75 CNS = test system: SNB-75 CNS

CCOC(=O)/C=C1\Nc2ccccc2C12CCc1c([nH]c3ccccc13)C2C(=O)OCC (centres undefined)
TGI (DU-145 prostate): > 100 µM
TGI (OVCAR-3 ovarian): > 100 µM
TGI (SN12C renal): > 100 µM
TGI (786-0 renal): > 100 µM
TGI (NCI-H522 lung): > 100 µM
TGI (COLO 205 colon): 30.2 µM
TGI (PC-3 prostate): > 100 µM
TGI (K-562 leukemia): > 100 µM
TGI (SK-MEL-2 melanoma): > 100 µM

CC(=O)N[C@@H](Cc1ccc(O)cn1)C(=O)NCc1ccc2c(c1)OCO2
TGI (DU-145 prostate): > 100 µM
TGI (OVCAR-3 ovarian): > 100 µM
TGI (SN12C renal): > 100 µM
TGI (786-0 renal): > 100 µM
TGI (NCI-H522 lung): > 100 µM
TGI (COLO 205 colon): > 100 µM
TGI (PC-3 prostate): > 100 µM
TGI (K-562 leukemia): > 100 µM
TGI (SK-MEL-2 melanoma): > 100 µM

CCCCCCCCCCCCCCCCOCC(CC(F)(F)P(=O)(O)O)OC(C)=O (centres undefined)
TGI (DU-145 prostate): > 50 µM
TGI (OVCAR-3 ovarian): > 50 µM
TGI (SN12C renal): > 50 µM
TGI (786-0 renal): > 50 µM
TGI (NCI-H522 lung): > 50 µM
TGI (COLO 205 colon): > 50 µM
TGI (PC-3 prostate): > 50 µM
TGI (SNB-75 CNS): > 50 µM
TGI (K-562 leukemia): > 50 µM
TGI (SK-MEL-2 melanoma): > 50 µM

CC1CN=C(c2cccc(OCc3ccc(COc4cccc(C5=NCC(C)N5)c4)cc3)c2)N1 (centres undefined)
TGI (DU-145 prostate): > 100 µM
TGI (OVCAR-3 ovarian): > 100 µM
TGI (SN12C renal): > 100 µM
TGI (786-0 renal): > 100 µM
TGI (NCI-H522 lung): > 100 µM
TGI (COLO 205 colon): 39 µM
TGI (PC-3 prostate): > 100 µM
TGI (SNB-75 CNS): 91.4 µM
TGI (K-562 leukemia): > 100 µM
TGI (SK-MEL-2 melanoma): 79.7 µM

COc1ccc(C2CC(c3c(C)nn(-c4ccccc4)c3-c3ccc(C)cc3O)=NN2c2ccccc2)cc1 (centres undefined)
TGI (DU-145 prostate): > 100 µM
TGI (OVCAR-3 ovarian): > 100 µM
TGI (SN12C renal): > 100 µM
TGI (786-0 renal): > 100 µM
TGI (NCI-H522 lung): > 100 µM
TGI (COLO 205 colon): > 100 µM
TGI (PC-3 prostate): > 100 µM
TGI (SNB-75 CNS): > 100 µM
TGI (K-562 leukemia): > 100 µM
TGI (SK-MEL-2 melanoma): > 52.3 µM

Brc1ccc(N2C[N+](c3ccc(Br)cc3)=NC(c3ccccc3)=N2)cc1
TGI (SN12C renal): 33.3 µM and > 100 µM
TGI (786-0 renal): 29.5 µM and > 100 µM
TGI (NCI-H522 lung): 36.4 µM and > 100 µM
TGI (COLO 205 colon): 33.7 µM and > 100 µM
TGI (SNB-75 CNS): 48.4 µM and > 100 µM
TGI (K-562 leukemia): 32.8 µM and > 100 µM
TGI (SK-MEL-2 melanoma): 32.6 µM and > 100 µM

CCCCc1ccc2[n+](c1)C(C(=O)OCC)=PC2 (centres undefined)
TGI (DU-145 prostate): > 100 µM
TGI (OVCAR-3 ovarian): > 100 µM
TGI (SN12C renal): > 100 µM
TGI (786-0 renal): > 100 µM
TGI (NCI-H522 lung): > 100 µM
TGI (COLO 205 colon): > 100 µM
TGI (PC-3 prostate): > 100 µM
TGI (SNB-75 CNS): > 100 µM

O=c1c(Cc2ccc(Cl)cc2)nnc2sc(-c3ccc([N+](=O)[O-])cc3)nn12
TGI (DU-145 prostate): > 100 µM
TGI (SN12C renal): > 100 µM
TGI (786-0 renal): > 100 µM
TGI (PC-3 prostate): 47.2 µM
TGI (K-562 leukemia): > 100 µM
TGI (SK-MEL-2 melanoma): 33.7 µM

O=C1c2ccccc2NC2C(O)c3ccccc3N12 (centres undefined)
TGI (DU-145 prostate): > 100 µM
TGI (OVCAR-3 ovarian): > 100 µM
TGI (SN12C renal): > 100 µM
TGI (786-0 renal): > 100 µM
TGI (NCI-H522 lung): > 100 µM
TGI (COLO 205 colon): > 100 µM
TGI (PC-3 prostate): > 100 µM
TGI (SNB-75 CNS): > 100 µM
TGI (K-562 leukemia): > 100 µM
TGI (SK-MEL-2 melanoma): > 100 µM

O=C(c1cccs1)N(C(=S)N1CCN(c2ccccc2)CC1)c1ccccc1
TGI (OVCAR-3 ovarian): > 100 µM
TGI (SN12C renal): > 100 µM
TGI (786-0 renal): > 100 µM
TGI (NCI-H522 lung): > 100 µM
TGI (COLO 205 colon): > 100 µM
TGI (SNB-75 CNS): > 100 µM
TGI (K-562 leukemia): > 100 µM
TGI (SK-MEL-2 melanoma): > 100 µM

O=C1CSC2(CC(/C=C/C=C/c3ccccc3)=NN2c2cccc(S(=O)(=O)O)c2)N1c1nc2ccccc2s1 (centres undefined)
TGI (SN12C renal): > 100 µM
TGI (786-0 renal): > 100 µM
TGI (NCI-H522 lung): > 100 µM
TGI (COLO 205 colon): > 100 µM
TGI (PC-3 prostate): > 100 µM
TGI (SNB-75 CNS): > 100 µM
TGI (K-562 leukemia): > 100 µM
TGI (SK-MEL-2 melanoma): > 100 µM

Oc1ccc(-c2c3c(nc4c2CCc2ccc(Br)cc2-4)-c2cc(Br)ccc2CC3)cc1
TGI (DU-145 prostate): 59.5 µM
TGI (OVCAR-3 ovarian): 29.5 µM
TGI (SN12C renal): 43.6 µM
TGI (786-0 renal): 37.4 µM
TGI (NCI-H522 lung): 42.7 µM
TGI (COLO 205 colon): 32.4 µM
TGI (PC-3 prostate): 31.9 µM
TGI (SNB-75 CNS): 54.9 µM
TGI (SK-MEL-2 melanoma): 35 µM

COc1cc(C2SCC(=O)N2NC(=O)c2ccc(NC(C)=O)cc2)cc(OC)c1OC (centres undefined)
TGI (DU-145 prostate): > 100 µM
TGI (OVCAR-3 ovarian): > 100 µM
TGI (SN12C renal): > 100 µM
TGI (786-0 renal): > 100 µM
TGI (COLO 205 colon): > 100 µM
TGI (SNB-75 CNS): > 100 µM
TGI (K-562 leukemia): > 100 µM
TGI (SK-MEL-2 melanoma): > 100 µM

O=[N+]([O-])c1ccc2nc3ccc([N+](=O)[O-])cn3c2c1
TGI (DU-145 prostate): > 100 µM
TGI (SN12C renal): > 100 µM
TGI (786-0 renal): > 100 µM
TGI (NCI-H522 lung): 65.5 µM
TGI (COLO 205 colon): > 100 µM
TGI (PC-3 prostate): > 100 µM
TGI (SNB-75 CNS): > 100 µM
TGI (K-562 leukemia): > 100 µM
TGI (SK-MEL-2 melanoma): > 100 µM

COc1ccc(C(=O)Cc2cc(OC)ccc2OC)cc1
TGI (OVCAR-3 ovarian): > 100 µM
TGI (SN12C renal): > 100 µM
TGI (NCI-H522 lung): > 100 µM
TGI (COLO 205 colon): > 100 µM
TGI (SNB-75 CNS): 60.1 µM
TGI (K-562 leukemia): > 100 µM
TGI (SK-MEL-2 melanoma): > 100 µM

COc1cc(C(=O)Nc2nnc(S(N)(=O)=O)s2)cc(OC)c1OC
TGI (DU-145 prostate): > 100 µM
TGI (OVCAR-3 ovarian): > 100 µM
TGI (SN12C renal): > 100 µM
TGI (786-0 renal): > 100 µM
TGI (NCI-H522 lung): > 100 µM
TGI (COLO 205 colon): > 100 µM
TGI (K-562 leukemia): > 100 µM
TGI (SK-MEL-2 melanoma): > 100 µM

O=S1(=O)NNC(=NCc2ccc(F)cc2)c2ccccc21
TGI (DU-145 prostate): > 100 µM
TGI (OVCAR-3 ovarian): > 100 µM
TGI (SN12C renal): > 100 µM
TGI (786-0 renal): > 100 µM
TGI (COLO 205 colon): > 100 µM
TGI (K-562 leukemia): > 73.1 µM
TGI (SK-MEL-2 melanoma): > 100 µM

O=CNc1cccc2c3c([nH]c12)CCCCCC3
TGI (OVCAR-3 ovarian): > 100 µM
TGI (SN12C renal): > 100 µM
TGI (NCI-H522 lung): > 100 µM
TGI (COLO 205 colon): > 100 µM
TGI (SNB-75 CNS): > 100 µM
TGI (K-562 leukemia): > 100 µM
TGI (SK-MEL-2 melanoma): > 100 µM

N#Cc1c(N)c(-c2ccc(Cl)cc2)c(F)c2ccccc12
TGI (OVCAR-3 ovarian): > 100 µM
TGI (SN12C renal): > 100 µM
TGI (786-0 renal): > 100 µM
TGI (NCI-H522 lung): > 100 µM
TGI (COLO 205 colon): > 100 µM
TGI (PC-3 prostate): > 100 µM
TGI (SNB-75 CNS): > 100 µM
TGI (K-562 leukemia): > 100 µM
TGI (SK-MEL-2 melanoma): > 100 µM

O=C1NC(=O)/C(=C\c2ccncc2)N1
TGI (DU-145 prostate): > 100 µM
TGI (OVCAR-3 ovarian): > 100 µM
TGI (SN12C renal): > 100 µM
TGI (786-0 renal): > 100 µM
TGI (COLO 205 colon): > 100 µM
TGI (PC-3 prostate): > 100 µM
TGI (SNB-75 CNS): > 100 µM
TGI (SK-MEL-2 melanoma): > 100 µM

O=C1/C(=C/c2ccccc2S)N=C(c2ccccc2)N1c1ccc2c(c1)Sc1cc(N3C(=O)/C(=C/c4ccccc4S)N=C3c3ccccc3)ccc1N2
TGI (DU-145 prostate): 40.4 µM
TGI (OVCAR-3 ovarian): 38.1 µM
TGI (SN12C renal): 34.3 µM
TGI (786-0 renal): 46.4 µM
TGI (COLO 205 colon): > 100 µM
TGI (PC-3 prostate): 46.9 µM
TGI (SNB-75 CNS): 38.4 µM
TGI (K-562 leukemia): 51 µM
TGI (SK-MEL-2 melanoma): 44.8 µM

Cc1ccc(S(=O)(=O)C(C#N)c2nc3ccccc3nc2-n2cccn2)cc1 (centres undefined)
TGI (OVCAR-3 ovarian): > 100 µM
TGI (SN12C renal): > 100 µM
TGI (786-0 renal): > 100 µM
TGI (COLO 205 colon): > 100 µM
TGI (SNB-75 CNS): > 100 µM
TGI (K-562 leukemia): > 100 µM
TGI (SK-MEL-2 melanoma): > 100 µM

O=C1C/C(=C\O)C(=O)c2ccccc2N1
TGI (DU-145 prostate): > 100 µM
TGI (OVCAR-3 ovarian): > 100 µM
TGI (SN12C renal): > 100 µM
TGI (786-0 renal): > 100 µM
TGI (NCI-H522 lung): > 100 µM
TGI (COLO 205 colon): > 100 µM
TGI (PC-3 prostate): > 100 µM
TGI (K-562 leukemia): > 100 µM
TGI (SK-MEL-2 melanoma): > 100 µM

CC(=O)O[C@]12CCCCCCC1C1(O)C(O)CCC[C@H]12 (some centres undefined)
TGI (SN12C renal): > 100 µM
TGI (786-0 renal): > 100 µM
TGI (NCI-H522 lung): > 100 µM
TGI (COLO 205 colon): > 100 µM
TGI (SNB-75 CNS): > 100 µM
TGI (K-562 leukemia): > 100 µM
TGI (SK-MEL-2 melanoma): > 100 µM
